According to patent US20250345378A1 (priority 2022, published 2025):
Where two headings read alike, the source gives them in different places.

Legend:
[1] = system: 304 E. coli clinical isolates; type: cell-based, Escherichia coli
Method: (§1) Phage cocktail CK618 was tested in combination with and alongside antibiotics against two isolate panels. The first assay used a panel of 88 contemporaneous urinary tract infection (UTI) isolates from North America, Europe, Latin America, and Asia. […] The second assay used a panel made up of a 300-strain clinical isolate panel (Table 14) with an additional 4 strains of interest. […] Four of the same SOC antibiotics tested against the 88-isolate panel were tested against this panel. The non-SOC antibiotics were not included due to their limited use in clinical settings, and nitrofurantoin was not included due to the low probability of resistance to this drug.
(§2) For both isolate panels, antibiotic concentrations tested were determined by using Clinical and Laboratory Standards Institute (CLSI) or European Committee on Antimicrobial Susceptibility Testing (EUCAST) breakpoints at concentrations that kill susceptible isolates but allow intermediate or resistant isolates to grow in the standard AST microdilution assay (Table 17).
(§3) The composition of the proposed Phase 2 CRISPR-enhanced bacteriophage (CRISPR-phage, hereafter termed ‘crPhage’) cocktail (CK618) has been updated from the CK570 to include six bacteriophages as compared to three bacteriophages in CK570. Bacteriophage cocktail CK618, was prepared such that all bacteriophages had equivalent titers in the final cocktail. The cocktail was then mixed with bacteria to obtain final titers of 1×10^6 plaque-forming unit (PFU)/mL/phage for the cocktail and 1×10^5 colony-forming unit (CFU)/mL for the bacteria, resulting in a multiplicity of infection (MOI) of 10 for each bacteriophage in a sample. Briefly, 5 μl of each sample (CK618 alone, CK618 and antibiotics, antibiotics alone, or medium alone) was added to 5 μl of optical density (OD)-normalized bacterial isolate and 40 μl LB medium. Reactions were incubated at 37° C. with shaking and OD measurements were taken each hour for 20 hours.
(§4) Host range percentage is the percent of isolates that responded to treatment of antibiotics or CK618. In the case of the 88-isolate panel, results were analyzed on the complete panel as well as the subset of classified as multidrug-resistant (MDR) (n=21) and beta-lactam-resistant (n=31).
(§5) The first assay used a panel of 88 contemporaneous isolates. Twenty-one of those strains are classified as MDR, with resistance to 3 or more antibiotic classes. […] The second assay used the panel made up of a 300-strain clinical isolate panel with an additional 4 strains of interest.
(§6) Antibiotic concentrations tested were determined by using CLSI or EUCAST breakpoints at concentrations that kill susceptible strains but allow intermediate or resistant strains to grow in the standard AST microdilution assay (Table 27). LBP-EC01 v.2 was combined with bacteria resulting in a MO of 10 for each bacteriophage in a sample. In the case of the 88-isolate panel, results were analyzed on the complete panel as well as the subset of isolates classified as multidrug-resistant (MDR) (n=21) and beta-lactam-resistant (n=31).

[2] = system: 88 urinary tract infection E. coli isolates; type: cell-based, Escherichia coli; details: for Host Range % on MDR Subset (n = 21), Combination: Antibiotic + LBP-EC01 v.2 / Host Range % on all Strains (n = 88), Combination: Antibiotic + LBP-EC01 v.2 / Host Range % on Beta-lactam-Resistant Subset (n = 31), Combination: Antibiotic + LBP-EC01 v.2: antibiotic combined with LBP-EC01 v.2; for Host Range % on all Strains (n = 88), Combination: Antibiotic + CK618 v.2: antibiotic at breakpoint concentration plus cocktail 1 × 10^6 PFU/ml per bacteriophage
Method: as §1, §2, §3, §4, §5, §6

[3] = system: E. coli strain b3370; assay: Neutropenic thigh model, Colicin 10 and Colicin U (Study 23-END-056); type: in vivo, ICR mouse; details: 4 h and 7 h; 295 nM Colicin 10, 29.5 nM Colicin U
Method: Study 23-END-056 was performed to evaluate the statistical difference between Control and Colicin treatment and sustained reduction of bacteria burden to LOD with colicin treatment in an ICR mouse model (FIG. 51). Specifically, the efficacy of 29.5 nM Colicin U, and combination therapy of both of 295 nM Colicin 10 & 29.5 nM Colicin U were evaluated in an ICR mouse model compared with no treatment (Table 40 and FIG. 52). In these experiments, due to high endotoxin, Colicin U was diluted 1:10 more than Colicin 10. At the 4 h and 7 h time points, treatment with 295 nM Colicin 10 lowered CFU, whereas no change was seen after treatment with 29.5 Colicin U.

[4] = system: E. coli strains b3411 and b3370; assay: In vitro CFU reduction by purified colicins; type: cell-based, Escherichia coli; details: ~30 min, then regrowth
Method: Colicins produced an immediate significant reduction of CFU/mL (˜30 min) after adding colicins before bacterial regrowth.

[5] = 88-isolate panel, listed as Fosfomycin 8
[6] = 88-isolate panel, listed as Fosfomycin 64

C[C@@H]1O[C@@H]1P(=O)(O)O [Fosfomycin]
host range performance compared with antibiotics / combination (in words) ([1]; 88- and 304-isolate panels, all, MDR and beta-lactam-resistant strains): strong activity across all strains
Host range % on MDR subset (n = 93), Combination: Antibiotic + LBP-CK618 ([1]; 304-isolate panel): 96.8%
Host range % on MDR subset (n = 93), Single agent treatment ([1]; 304-isolate panel): 83.9%
Host range % on beta-lactam-resistant subset (n = 91), Combination: Antibiotic + LBP-CK618 ([1]; 304-isolate panel): 96.7%
Host range % on beta-lactam-resistant subset (n = 91), Single agent treatment ([1]; 304-isolate panel): 86.8%
Host Range % on MDR Subset (n = 93), Combination Antibiotic + LBP-EC01 v.2 ([1]; 304-isolate panel, MDR subset, antibiotic combined with LBP-EC01 v.2): 96.8%
Host Range % on all Strains (n = 304), Combination: Antibiotic + LBP-EC01 v.2 ([1]; 304-isolate panel, all strains, antibiotic combined with LBP-EC01 v.2): 97.0%
Host Range % on all Strains (n = 304), Single agent treatment ([1]; 304-isolate panel, all strains, single agent): 87.5%
Host Range % on Beta-lactam-Resistant Subset (n = 91), Combination: Antibiotic + LBP-EC01 v.2 ([1]; 304-isolate panel, beta-lactam-resistant subset, antibiotic combined with LBP-EC01 v.2): 96.7%
Host range % on beta-lactam-resistant subset (n = 91), Single agent treatment ([1]; 304-isolate panel, beta-lactam-resistant subset, single agent): 86.8%
Host Range % on MDR Subset (n = 21), Combination: Antibiotic + LBP-EC01 v.2 ([2]; 88-isolate panel, MDR subset, listed as Fosfomycin 8): 95.2%
Host Range % on MDR Subset (n = 21), Combination: Antibiotic + LBP-EC01 v.2 ([2]; 88-isolate panel, MDR subset, listed as Fosfomycin 64): 100.0%
Host Range % on MDR Subset (n = 21), Single agent treatment ([2]; 88-isolate panel, MDR subset, single agent, listed as Fosfomycin 8): 90.5%
Host Range % on MDR Subset (n = 21), Single agent treatment ([2]; 88-isolate panel, MDR subset, single agent, listed as Fosfomycin 64): 96.8%
Host Range % on all Strains (n = 88), Combination: Antibiotic + LBP-EC01 v.2 ([2]; 88-isolate panel, all strains, listed as Fosfomycin 8): 93.9%
Host Range % on all Strains (n = 88), Combination: Antibiotic + LBP-EC01 v.2 ([2]; 88-isolate panel, all strains, listed as Fosfomycin 64): 98.5%
Host Range % on all Strains (n = 88), Single agent treatment ([2]; 88-isolate panel, all strains, single agent, listed as Fosfomycin 8): 85.2%
Host Range % on all Strains (n = 88), Single agent treatment ([2]; 88-isolate panel, all strains, single agent, listed as Fosfomycin 64): 93.2%
Host Range % on Beta-lactam-Resistant Subset (n = 31), Combination: Antibiotic + LBP-EC01 v.2 ([2]; 88-isolate panel, beta-lactam-resistant subset, listed as Fosfomycin 8): 94.6%
Host Range % on Beta-lactam-Resistant Subset (n = 31), Combination: Antibiotic + LBP-EC01 v.2 ([2]; 88-isolate panel, beta-lactam-resistant subset, listed as Fosfomycin 64): 100.0%
Host Range % on Beta-lactam-Resistant Subset (n = 31), Single agent treatment ([2]; 88-isolate panel, beta-lactam-resistant subset, single agent, listed as Fosfomycin 8): 87.1%
Host Range % on Beta-lactam-Resistant Subset (n = 31), Single agent treatment ([2]; 88-isolate panel, beta-lactam-resistant subset, single agent, listed as Fosfomycin 64): 95.7%
Host Range % on Beta-lactam-Resistant Subset (n = 31), Combination: Antibiotic + CK618 v.2 [2, 5]: 94.6%
Host Range % on Beta-lactam-Resistant Subset (n = 31), Single agent treatment [2, 5]: 87.1%
Host Range % on MDR Subset (n = 21), Combination: Antibiotic + CK618 v.2 [2, 5]: 95.2%
Host Range % on MDR Subset (n = 21), Single agent treatment [2, 5]: 90.5%
Host Range % on Beta-lactam-Resistant Subset (n = 31), Combination: Antibiotic + CK618 v.2 [2, 6]: 100.0%
Host Range % on Beta-lactam-Resistant Subset (n = 31), Single agent treatment [2, 6]: 95.7%
Host Range % on MDR Subset (n = 21), Combination: Antibiotic + CK618 v.2 [2, 6]: 100.0%
Host Range % on MDR Subset (n = 21), Single agent treatment [2, 6]: 96.8%
Host Range % on all Strains (n = 88), Single agent treatment ([2]; antibiotic at breakpoint concentration (Table 17), cocktail 1 × 10^6 PFU/ml per bacteriophage, MOI 10, listed as Fosfomycin 8): 85.2%
Host Range % on all Strains (n = 88), Single agent treatment ([2]; antibiotic at breakpoint concentration (Table 17), cocktail 1 × 10^6 PFU/ml per bacteriophage, MOI 10, listed as Fosfomycin 64): 93.2%
Host Range % on all Strains (n = 88), Combination: Antibiotic + CK618 v.2 ([2]; listed as Fosfomycin 8): 93.9%
Host Range % on all Strains (n = 88), Combination: Antibiotic + CK618 v.2 ([2]; listed as Fosfomycin 64): 98.5%

B1: Colicin 10 (protein)
chain: MDKVTDNSPDVESTESTEGSFPTVGVDTGDTITATLATGTENVGGGGGAFGGASESSAAIHATAKWSTAQLKKHQAEQAARAAAAEAALAKAKSQRDALTQRLKDIVNDALRANAARSPSVTDLAHANNMAMQAEAERLRLAKAEQKAREEAEAAEKALREAERQRDEIARQQAETAHLLAMAEAAEAEKNRQDSLDEEHRAVEVAEKKLAEAKAELAKAESDVQSKQAIVSRVAGELENAQKSVDVKVTGFPGWRDVQKKLERQLQDKKNEYSSVTNALNSAVSIRDAKKTEVQNAEIKLKEAKDALEKSQVKDSVDTMVGFYQYITEQYGEKYSRIAQDLAEKAKGSKFNSVDEALAAFEKYKNVLDKKFSKVDRDDIFNALESITYDEWAKHLEKISRALKVTGYLSFGYDVWDGTLKGLKTGDWKPLFVTLEKSAVDFGVAKIVALMFSFIVGAPLGFWGIAIITGIVSSYIGDDELNKLNELLGI
modifications: Colicin 10
CFU in mouse thigh compared with no treatment [3]: lowered CFU
CFU reduction after adding colicins [4]: CFU reduction was observed

B2: Colicin U (protein)
chain: MPGFNYGGHGDGTGWSSERGDGPAPGGGMQGNGGGHSGNNDSGSNSVSQQISAIQNDQKLKQKVVNMLIAARKMNPDAKMILGSIAPSGVMQVTIEGVTSTQARQLGLGGLVMGYNASGVIGAVGEIDTGHRLNASGASTPGSETSVDSFVNGQKPAEEWHAVAKDSWTGAGPVNTGLVNNAIKSVRIIKKGYVTGVLTPEEVMNKAEYKAMRQAFDSLPLAKQGEAVRQIVAAWSLAYQDFPVNLKKEMGRVTERIVDAINLALILNQTESRLSESQKNVDVANQIISDTVKAINDVNKKIAEKRNQQVSLTDLMNKKQKEVEDLKKIFKNHSYHRIRDAQREYDDARNKYALLASDINALQAQVSGLTARKQQAEQNKAAAEKAKADAAAKAAAEKAAAEAKAKAEAEKARKEAEEKANDEKAVLTKASEIIISVGDKAGEYLGDKYKVLSREIADNIKNFQGKTIRSYDEAMASVNKLMANPDLKINAADRDAIVNAWKAFDAEDMGNKFAALGKTFKAADYVMKANNVREKSIEGYQTGNWGPLMLEIESWVLSGIASAVALSFFSAIFGTFAMLGVFSTSLAGILAVILAGLVGALIDDNFVDKLNNEIIRPAY
modifications: Colicin U
CFU in mouse thigh compared with no treatment [3]: no change
CFU reduction after adding colicins [4]: CFU reduction was observed
